Test results taken from PubChem BioAssay AID624129 (Sanford-Burnham Center for Chemical Genomics, 2012).
Calls of active or inactive are those of the source. The rule behind the calls is not given here.

How the values were obtained:
Assay in all cases: CXCR6 receptor antagonists, dose response, cell-based, beta-arrestin, DiscoveRx, APJ panel, uHTS hits (AID 624129)
[1] = molecular target: C-X-C chemokine receptor type 6 (Homo sapiens) (UniProt O00574); details: CXCR6 beta-arrestin (DiscoveRx) antagonist cell assay
C-X-C chemokine receptor type 6 (Homo sapiens), sequence (O00574 whole entry, looked up): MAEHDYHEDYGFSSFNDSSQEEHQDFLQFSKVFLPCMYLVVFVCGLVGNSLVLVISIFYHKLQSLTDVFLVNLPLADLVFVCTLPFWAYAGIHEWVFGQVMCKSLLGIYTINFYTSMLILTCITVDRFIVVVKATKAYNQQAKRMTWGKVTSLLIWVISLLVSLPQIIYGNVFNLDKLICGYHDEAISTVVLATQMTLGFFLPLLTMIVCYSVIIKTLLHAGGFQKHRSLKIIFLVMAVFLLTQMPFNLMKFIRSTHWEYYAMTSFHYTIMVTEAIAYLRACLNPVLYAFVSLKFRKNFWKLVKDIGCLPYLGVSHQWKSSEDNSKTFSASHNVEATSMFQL

[2] = molecular target: C-C chemokine receptor type 6 (Homo sapiens) (UniProt P51684); details: CXCR6 beta-arrestin (DiscoveRx) antagonist cell assay
[3] = molecular target: Apelin receptor (Homo sapiens) (UniProt P35414); details: CXCR6 beta-arrestin (DiscoveRx) antagonist cell assay, APJ
[4] = molecular target: Beta-galactosidase (Escherichia coli) (UniProt Q8VNN2); details: CXCR6 beta-arrestin (DiscoveRx) antagonist cell assay, b-galactosidase
Beta-galactosidase (Escherichia coli), sequence (Q8VNN2 whole entry, looked up): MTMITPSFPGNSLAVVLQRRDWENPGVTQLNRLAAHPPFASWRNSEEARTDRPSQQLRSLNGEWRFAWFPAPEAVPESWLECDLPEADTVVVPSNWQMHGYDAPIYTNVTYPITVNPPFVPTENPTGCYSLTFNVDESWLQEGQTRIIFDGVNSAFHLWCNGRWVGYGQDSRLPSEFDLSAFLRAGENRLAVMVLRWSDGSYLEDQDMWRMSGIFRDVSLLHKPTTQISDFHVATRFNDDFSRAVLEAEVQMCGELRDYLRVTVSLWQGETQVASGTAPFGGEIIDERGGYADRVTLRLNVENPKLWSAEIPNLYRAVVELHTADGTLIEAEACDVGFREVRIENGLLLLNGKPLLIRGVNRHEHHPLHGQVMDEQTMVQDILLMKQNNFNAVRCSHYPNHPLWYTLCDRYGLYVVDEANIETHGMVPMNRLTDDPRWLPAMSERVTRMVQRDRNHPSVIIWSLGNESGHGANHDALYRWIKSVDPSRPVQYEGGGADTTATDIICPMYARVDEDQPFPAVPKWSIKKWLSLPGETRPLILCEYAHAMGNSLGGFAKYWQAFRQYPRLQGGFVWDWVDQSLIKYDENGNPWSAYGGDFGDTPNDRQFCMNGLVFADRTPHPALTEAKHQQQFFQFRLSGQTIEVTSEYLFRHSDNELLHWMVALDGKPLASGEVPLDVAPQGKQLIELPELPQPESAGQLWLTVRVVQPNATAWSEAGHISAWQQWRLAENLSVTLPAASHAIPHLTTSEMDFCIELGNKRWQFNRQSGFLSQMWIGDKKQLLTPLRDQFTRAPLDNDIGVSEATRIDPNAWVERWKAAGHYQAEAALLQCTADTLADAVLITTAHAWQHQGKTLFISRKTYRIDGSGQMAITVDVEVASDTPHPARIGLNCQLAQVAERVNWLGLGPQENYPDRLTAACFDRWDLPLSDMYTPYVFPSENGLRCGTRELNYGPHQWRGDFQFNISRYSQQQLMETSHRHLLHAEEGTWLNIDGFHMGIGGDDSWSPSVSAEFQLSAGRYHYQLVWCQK

[5] = CXCR6, dose range 1, mean IC50 across replicates
[6] = CCR6, dose range 1, mean IC50 across replicates
[7] = dose range 1, mean IC50 across replicates
[8] = CXCR6, run 1, dose range 2, at 80 µM (top of the series)
[9] = CXCR6, run 2, dose range 1, at 79 µM (top of the series)

SMILES	IC50 ([1]; CXCR6, dose range 1)	IC50 [1, 5] [µM]	IC50 ([1]; CXCR6, run 1, dose range 2) [µM]	IC50 ([1]; CXCR6, run 2, dose range 1) [µM]	IC50 ([1]; CXCR6, run 2, dose range 2) [µM]	IC50 ([2]; CCR6, dose range 1)	IC50 [2, 6] [µM]	IC50 ([2]; CCR6, run 2, dose range 1) [µM]	IC50 ([3]; dose range 1)	IC50 [3, 7] [µM]	IC50 ([3]; run 2, dose range 1) [µM]	IC50 ([3]; run 3, dose range 1) [µM]	IC50 ([4]; dose range 1)	IC50 [4, 7] [µM]	inhibition [1, 8] [%]	activity value [1]	outcome ([1]; CXCR6, dose range 1)	inhibition [1, 9] [%]
CC(C)c1ccc(O)c(NC(=S)NC(=O)c2cccnc2)c1	inactive	14.9	12.7	20.7	8.67	10.6 µM	10	9.43	8.65 µM	9.87	10.6	10.4	inactive	51.9				
C=C1C(=O)C23CCC4C(C)(C(=O)OC)CCCC4(C)C2CCC1(O)C3 (configuration not stated)	5.72 µM	6.19	6.35	5.95	6.77	5.19 µM	5.45	5.72	9.66 µM	8.26	7.57	7.54	> 80 µM (inactive)	> 80				
O=c1oc2ccccc2c(Cl)c1CN1CCCCC1	7.83 µM	7.76		7.68		5.59 µM	6.07	6.55	13.2 µM	17.9	21.6	18.9	25.6 µM	25.6	125			
O=C(OCn1ncc(Cl)c(Cl)c1=O)c1cccc(C(F)(F)F)c1	inactive	23.5		19		14 µM	16.1	18.2	21.6 µM	31.7	32.5	40.9	> 80 µM (inactive)	> 80	128			
CS(=O)(=O)c1ncc(Cl)c(C(=O)Nc2ccc3ccccc3c2)n1	> 80 µM (inactive)	> 80		> 80			47.5	47.5	61.2 µM	60.7	60.1	> 80	> 80 µM (inactive)	> 80	47.9			
O=S(=O)(/C=C/C=C/S(=O)(=O)c1ccccc1)c1ccccc1	11.6 µM	10.5	10.1	8.76	11.4	7.48 µM	7.41	7.33	23.5 µM	24.6	25.7	> 80	> 80 µM (inactive)	> 80				
CCN(CC)CC(C)(C)C(=O)/C=C/c1ccc(/C=C/C(=O)C(C)(C)CN(CC)CC)cc1	3.11 µM	3.27	3.64	2.99	3.35	2.76 µM	2.87	2.98	4.46 µM	4.05	3.91	3.78	> 80 µM (inactive)	> 80				
O=C1C(Cc2ccccc2)Nc2ncnc(N3CCN(c4ccccc4)CC3)c2N1Cc1ccc(Br)cc1 (configuration not stated)	1.37 µM	1.23	1.42	0.993	1.13	1.67 µM	1.55	1.44	1.2 µM	2.26	3.32	> 80	> 80 µM (inactive)	> 80				
CCOC(=O)CSc1cccc2cccnc12	7.12 µM	5.86	3.95	8.08	4.32	4.64 µM	5.27	5.89	4.5 µM	5.48	6.81	5.13	> 80 µM (inactive)	> 80				
COC(=O)[C@@H]1[C@@H](C#N)C2(c3ccccc3-c3ccccc32)N(c2ccc(Cl)cc2)N1C#N	> 80 µM (inactive)	> 80		> 80			> 80	> 80		> 80	> 80	> 80	> 80 µM (inactive)	> 80	11.1			
CN(C)c1nc(=NCc2cccs2)ss1	4.99 µM	5.43		5.86		3.66 µM	2.37	1.07	3.71 µM	3.68	> 80	3.66	> 80 µM (inactive)	> 80	53			
COc1cc(C(=O)NC2CC3CCCC(C2)N3CC(=O)Nc2ccccc2)cc(OC)c1OC (configuration not stated)	13.5 µM	10.7	12.3	10.7	6.07	> 80 µM (inactive)	> 80	> 80	> 80 µM (inactive)	> 80	> 80	> 80	> 80 µM (inactive)	> 80				
On1ccccc1=S	inactive	17.8		17.3		11.5 µM	27	42.4	13.2 µM	17.6	17.5	22.2			51.2	80 µM (inactive)		
CC(Oc1cccc(Br)c1)C(=O)NNC(=O)c1ccccn1 (configuration not stated)		14.4	12		16.9												inactive	105
FC(F)(F)c1cnc(NNC(=S)Nc2cccnc2)c(Cl)c1		21.1	11.8		30.4												inactive	107
Cn1c(=O)n(C)c2cc([N+](=O)[O-])c(N3CCN(C(=O)c4cccc(Cl)c4)CC3)cc21		11.2	11.3		11												inactive	60.7
O=[N+]([O-])/C=C/c1ccc2c(ccn2Cc2ccccc2)c1		11.3	9.06		13.5												inactive	111
COc1cc(/C=C/[N+](=O)[O-])ccc1OC(=O)c1cccnc1		25.5	19.1		31.9												inactive	108
N#C/C(=C/c1ccc(-c2ccc([N+](=O)[O-])cc2)o1)C(=O)Nc1nc(-c2cccs2)cs1		38.1	44.7		31.5												inactive	90.2
COc1ccc(CNC(=O)c2nc(S(=O)(=O)Cc3ccccc3)ncc2Cl)cc1		17.9	15.1		20.7												inactive	108
CC(=O)Nc1ccc2c(c1)Cc1cc(N3C(=O)C=CC3=O)ccc1-2		14.8	15.3		14.3												inactive	112
CS(=O)(=O)c1ncc(Cl)c(C(=O)Nc2ccc(OC(F)F)cc2)n1		13.3	12.4		14.2												inactive	113
COc1ccc(C(=O)N/N=C/c2cccc3cccnc23)cc1		13.5	12.6		14.5												inactive	60.1
